Assay type in all cases: cell-based
The subject of one test is Calu-1 cells. Kind of test: Anti-proliferation (viability) of NSCLC Calu-1 cells, 3 days (Table 7, FIG. 2B). The following applies: Homo sapiens, 72 h; Calu-1 cells, 3 days, 10-point serial dilution; read-out: GI IC50 in Calu-1. The essentials: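 Treatment length differs by line: Calu-1 cells receive degrader for 3 days, T47D cells for 6 days, each over a 10-point dilution series. A warhead-modified analogue with unchanged DDB1 binder and linker served as the non-CDK4-binding control.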

In the next test the test system is MCF7 cells. Nature of the test: Anti-proliferation (viability) of MCF7 cells (Table 7, FIG. 2B). To be noted: Homo sapiens, MCF7, MCF7 cells, 3-6 days, 10-point serial dilution; read-out: GI IC50 in MCF-7.
Another test concerns the target CDK4 (Homo sapiens, UniProt P11802+Q16531). Kind of test: CDK4 percentage degradation in Calu-1 cells (Table 6). The arrangement: Cells that express cyclin D1-3 and CDK4/6 proteins were treated with heterobifunctional compounds; endogenous in cells; host or cells: Calu-1. To be noted: 16 hours; for inhibition at 0.04 µM: 40 nM; for inhibition at 0.2 µM: 200 nM. The essentials:
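Calu-1 cells exposed to heterobifunctional compounds at 40 nM or 200 nM for 16 h. Cyclin D1 and CDK4 levels measured by Western blot of RIPA lysates (BCA-normalised loading), bands quantified by densitometry and expressed as percentage degradation.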

In the next test the test system is T47D cells. Kind of test: Anti-proliferation (viability) of ER+ breast cancer T47D cells, 6 days (Table 7, FIG. 2B). To be noted: Homo sapiens, 144 h; T47D cells, 6 days, 10-point serial dilution; read-out: GI IC50 in T47D. How it is done: To evaluate anti-proliferation activities of heterobifunctional compounds, NSCLC Calu-1 or ER+ breast cancer T47D cells were treated with selected heterobifunctional compounds following a 10-point serial dilution for 3 or 6 days, respectively.
To verify that heterobifunctional compound-mediated degradation is dependent on the binding to CDK4-cyclin D complex, a negative control compound, CPD-143, which is derived from active heterobifunctional compound CPD-10 was designed. CPD-143 bears the same DDB1 ligand and linker as CPD-10 but with a modified warhead to impair the binding of the control compound to CDK4.

pIC50: −log10 of the molar value.

One may read the pIC50 as −log10 of the IC50, conventionally taken in molar units. A word on the inhibition: it is the share of the control response that was lost under treatment. A higher inhibition goes with strong suppression.

Chain of CDK4 (P11802 2-303 limits assumed): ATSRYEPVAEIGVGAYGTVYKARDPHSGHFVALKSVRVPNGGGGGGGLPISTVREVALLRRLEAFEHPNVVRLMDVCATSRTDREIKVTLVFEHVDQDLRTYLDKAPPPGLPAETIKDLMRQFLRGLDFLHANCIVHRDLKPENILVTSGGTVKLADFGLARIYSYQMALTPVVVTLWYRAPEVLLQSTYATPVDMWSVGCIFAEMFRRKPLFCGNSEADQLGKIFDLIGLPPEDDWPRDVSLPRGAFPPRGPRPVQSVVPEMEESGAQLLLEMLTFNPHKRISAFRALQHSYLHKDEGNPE
Chain of CDK4 (P24385 whole entry partner): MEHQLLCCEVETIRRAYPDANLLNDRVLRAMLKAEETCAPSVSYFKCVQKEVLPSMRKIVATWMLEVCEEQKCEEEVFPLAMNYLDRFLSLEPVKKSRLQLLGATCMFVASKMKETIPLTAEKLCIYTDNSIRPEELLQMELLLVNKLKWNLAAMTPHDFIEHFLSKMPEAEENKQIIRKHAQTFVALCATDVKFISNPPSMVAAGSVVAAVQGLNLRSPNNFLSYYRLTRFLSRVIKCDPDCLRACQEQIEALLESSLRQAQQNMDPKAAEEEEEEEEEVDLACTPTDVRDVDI
Chain of CDK4 (Q16531 2-1140 limits assumed): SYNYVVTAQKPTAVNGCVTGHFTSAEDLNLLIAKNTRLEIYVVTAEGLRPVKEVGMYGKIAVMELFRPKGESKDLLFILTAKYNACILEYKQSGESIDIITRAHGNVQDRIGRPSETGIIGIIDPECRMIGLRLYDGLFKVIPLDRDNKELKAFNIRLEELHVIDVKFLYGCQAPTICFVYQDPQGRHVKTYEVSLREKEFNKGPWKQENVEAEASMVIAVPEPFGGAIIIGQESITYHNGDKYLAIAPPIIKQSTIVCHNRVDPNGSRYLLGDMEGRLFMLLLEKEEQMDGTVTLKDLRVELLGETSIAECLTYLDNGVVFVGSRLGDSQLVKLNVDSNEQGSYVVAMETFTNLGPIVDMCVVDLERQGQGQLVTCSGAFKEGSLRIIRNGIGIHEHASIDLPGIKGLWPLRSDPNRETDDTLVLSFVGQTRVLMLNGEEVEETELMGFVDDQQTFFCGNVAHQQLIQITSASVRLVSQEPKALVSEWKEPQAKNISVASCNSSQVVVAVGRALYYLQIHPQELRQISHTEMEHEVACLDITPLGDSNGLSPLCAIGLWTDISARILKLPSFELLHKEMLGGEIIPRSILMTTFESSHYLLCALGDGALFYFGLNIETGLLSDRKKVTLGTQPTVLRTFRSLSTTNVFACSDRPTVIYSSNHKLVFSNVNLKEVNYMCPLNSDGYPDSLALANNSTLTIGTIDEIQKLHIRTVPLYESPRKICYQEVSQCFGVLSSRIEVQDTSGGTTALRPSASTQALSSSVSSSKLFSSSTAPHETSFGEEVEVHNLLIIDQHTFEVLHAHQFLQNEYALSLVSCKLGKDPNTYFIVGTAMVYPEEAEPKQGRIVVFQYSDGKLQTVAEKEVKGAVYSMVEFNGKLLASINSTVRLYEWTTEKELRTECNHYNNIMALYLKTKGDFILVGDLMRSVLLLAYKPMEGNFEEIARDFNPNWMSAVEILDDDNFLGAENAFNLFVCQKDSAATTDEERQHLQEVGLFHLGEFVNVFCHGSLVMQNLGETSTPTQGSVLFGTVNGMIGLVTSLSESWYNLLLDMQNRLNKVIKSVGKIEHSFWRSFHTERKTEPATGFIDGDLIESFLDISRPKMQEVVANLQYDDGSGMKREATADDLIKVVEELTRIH

As to `CC(=O)c1c(C)c2cnc(Nc3ccc(N4CCN(CC(=O)NCCCCCNc5nc(C)ccc5C(=O)Nc5ccc(N(C)C)nn5)CC4)cn3)nc2n(C2CCCC2)c1=O` [CPD-16, 2-((5-(2-(4-(6-((6-Acetyl-8-cyclopentyl-5-methyl-7-oxo-7,8-dihydropyrido[2,3-d]pyrimidin-2-yl)amino)pyridin-3-yl)piperazin-1-yl)acetamido)pentyl)amino)-N-(6-(dimethylamino)pyridazin-3-yl)-6-methylnicotinamide], the pIC50 is no less than 8.00 in the test on Calu-1 cells, greater than 7.30 with MCF7 cells and no less than 7.30 in the test on T47D cells. In addition, on CDK4, the inhibition at 0.04 µM fell in the range of 50 to 80%. The inhibition at 0.2 µM on CDK4 lay within 50 to 80%.
For the molecule `CNc1ccc(C(=O)Nc2cccc(C3CC3)n2)c(NCCCCCNC(=O)CN2CCN(c3ccc(Nc4ncc5c(C)c(C(C)=O)c(=O)n(C6CCCC6)c5n4)nc3)CC2)n1` [CPD-51, 2-((5-(2-(4-(6-((6-Acetyl-8-cyclopentyl-5-methyl-7-oxo-7,8-dihydropyrido[2,3-d]pyrimidin-2-yl)amino)pyridin-3-yl)piperazin-1-yl)acetamido)pentyl)amino)-N-(6-cyclopropylpyridin-2-yl)-6-(methylamino)nicotinamide], the negative-log IC50 (pIC50) is no less than 8.00 in the test with Calu-1 cells, 7.00 to 7.30 with MCF7 cells and 7.00 to 7.30 in the test on T47D cells. The inhibition at 0.04 µM against CDK4 lay within 50 to 80%. This molecule returned an inhibition at 0.2 µM on CDK4 of 50 to 80%.
As for `CC(=O)c1c(C)c2cnc(Nc3ccc(N4CCN(CC(=O)NCCCCCNc5nc(C6CC6)ccc5C(=O)Nc5ccc(N(C)C)nn5)CC4)cn3)nc2n(C2CCCC2)c1=O` [CPD-27, 2-((5-(2-(4-(6-((6-Acetyl-8-cyclopentyl-5-methyl-7-oxo-7,8-dihydropyrido[2,3-d]pyrimidin-2-yl)amino)pyridin-3-yl)piperazin-1-yl)acetamido)pentyl)amino)-6-cyclopropyl-N-(6-(dimethylamino)pyridazin-3-yl)nicotinamide], the pIC50 with Calu-1 cells is no less than 8.00; in the test with MCF7 cells it was 7.00 to 7.30; with T47D cells it was 7.00 to 7.30. Also, the inhibition at 0.04 µM against CDK4 was greater than 80%. This molecule also gave an inhibition at 0.2 µM at CDK4 greater than 80%.
Take `CNc1ccc(C(=O)Nc2cccc(C)n2)c(NC2CC3(C2)CN(C(=O)CCN2CCN(c4ccc(Nc5ncc6c(C)c(C(C)=O)c(=O)n(C7CCCC7)c6n5)nc4)CC2)C3)n1` [CPD-155, 2-((2-(3-(4-(6-((6-acetyl-8-cyclopentyl-5-methyl-7-oxo-7,8-dihydropyrido[2,3-d]pyrimidin-2-yl)amino)pyridin-3-yl)piperazin-1-yl)propanoyl)-2-azaspiro[3.3]heptan-6-yl)amino)-6-(methylamino)-N-(6-methylpyridin-2-yl)nicotinamide]: the pIC50 with Calu-1 cells was no less than 8.00; in the test with MCF7 cells, less than 7.00; in the test with T47D cells, 7.00 to 7.30. In addition, the inhibition at 0.04 µM against CDK4 was in the range of 50 to 80%. On CDK4, this molecule came in with an inhibition at 0.2 µM greater than 80%.
For `CNc1ccc(C(=O)Nc2ccc(N(C)C)nn2)c(NC2CC3(C2)CC(OCC(=O)N2CCN(c4ccc(Nc5ncc6c(C)c(C(C)=O)c(=O)n(C7CCCC7)c6n5)nc4)CC2)C3)n1` (centres unmarked) [CPD-84, 2-((6-(2-(4-(6-((6-Acetyl-8-cyclopentyl-5-methyl-7-oxo-7,8-dihydropyrido[2,3-d]pyrimidin-2-yl)amino)pyridin-3-yl)piperazin-1-yl)-2-oxoethoxy)spiro[3.3]heptan-2-yl)amino)-N-(6-(dimethylamino)pyridazin-3-yl)-6-(methylamino)nicotinamide] the same measures were 7.30 to 8.00, less than 7.00, 7.00 to 7.30, less than 30% and less than 30%.
As to `CCc1ccc(C(=O)Nc2ccc(N(C)C)nn2)c(NCCCCCNC(=O)CN2CCN(c3ccc(Nc4ncc5c(C)c(C(C)=O)c(=O)n(C6CCCC6)c5n4)nc3)CC2)n1` [CPD-54, 2-((5-(2-(4-(6-((6-Acetyl-8-cyclopentyl-5-methyl-7-oxo-7,8-dihydropyrido[2,3-d]pyrimidin-2-yl)amino)pyridin-3-yl)piperazin-1-yl)acetamido)pentyl)amino)-N-(6-(dimethylamino)pyridazin-3-yl)-6-ethylnicotinamide], the pIC50 was no less than 8.00 with Calu-1 cells, greater than 7.30 in the test on MCF7 cells and 7.00 to 7.30 in the test with T47D cells. The inhibition at 0.04 µM against CDK4 lay in the range of 50 to 80%. The molecule further returned an inhibition at 0.2 µM against CDK4 of 50 to 80%.
`CNc1ccc(C(=O)Nc2ccc(N(C)C)nn2)c(NC2CC3(C2)CN(C(=O)CCN2CCN(c4ccc(Nc5ncc6c(C)c(C(C)=O)c(=O)n(C7CCCC7)c6n5)nc4)CC2)C3)n1` [CPD-62, 2-((2-(3-(4-(6-((6-Acetyl-8-cyclopentyl-5-methyl-7-oxo-7,8-dihydropyrido[2,3-d]pyrimidin-2-yl)amino)pyridin-3-yl)piperazin-1-yl)propanoyl)-2-azaspiro[3.3]heptan-6-yl)amino)-N-(6-(dimethylamino)pyridazin-3-yl)-6-(methylamino)nicotinamide]: the pIC50 was no less than 8.00 in the test with Calu-1 cells, greater than 7.30 with MCF7 cells and no less than 7.30 in the test with T47D cells. Besides, on CDK4, the inhibition at 0.04 µM is greater than 80%. This molecule registered an inhibition at 0.2 µM at CDK4 greater than 80%.
Turning to `CNc1ccc(C(=O)Nc2cc(C)n(C)n2)c(NC2CC3(C2)CN(C(=O)CCN2CCN(c4ccc(Nc5ncc6c(C)c(C(C)=O)c(=O)n(C7CCCC7)c6n5)nc4)CC2)C3)n1` [CPD-129, 2-((2-(3-(4-(6-((6-Acetyl-8-cyclopentyl-5-methyl-7-oxo-7,8-dihydropyrido[2,3-d]pyrimidin-2-yl)amino)pyridin-3-yl)piperazin-1-yl)propanoyl)-2-azaspiro[3.3]heptan-6-yl)amino)-N-(1,5-dimethyl-1H-pyrazol-3-yl)-6-(methylamino)nicotinamide], the figures for the pIC50 with Calu-1 cells, in the test on MCF7 cells and in the test on T47D cells were no less than 8.00, less than 7.00 and 7.00 to 7.30, respectively. For the same molecule, the inhibition at 0.04 µM against CDK4 lay within 50 to 80%. Moreover, the inhibition at 0.2 µM against CDK4 was 50 to 80%.
Consider `CC(=O)c1c(C)c2cnc(Nc3ccc(N4CCN(CC(=O)NCCCCCCCNc5nc(C)ccc5C(=O)Nc5ccc(N(C)C)nn5)CC4)cn3)nc2n(C2CCCC2)c1=O` [CPD-8, 2-((7-(2-(4-(6-((6-acetyl-8-cyclopentyl-5-methyl-7-oxo-7,8-dihydropyrido[2,3-d]pyrimidin-2-yl)amino)pyridin-3-yl)piperazin-1-yl)acetamido)heptyl)amino)-N-(6-(dimethylamino)pyridazin-3-yl)-6-methylnicotinamide], for which the pIC50 in the test with Calu-1 cells is no less than 8.00; in the test on MCF7 cells, greater than 7.30; in the test with T47D cells, no less than 7.30. For the same molecule, the inhibition at 0.04 µM on CDK4 was 50 to 80%. Moreover, at CDK4, the inhibition at 0.2 µM was greater than 80%.
For `CC(=O)c1c(C)c2cnc(Nc3ccc(N4CCN(CC(=O)NCCCCCNc5nc(C(C)C)ccc5C(=O)Nc5ccc(N(C)C)nn5)CC4)cn3)nc2n(C2CCCC2)c1=O` [CPD-63, 2-((5-(2-(4-(6-((6-Acetyl-8-cyclopentyl-5-methyl-7-oxo-7,8-dihydropyrido[2,3-d]pyrimidin-2-yl)amino)pyridin-3-yl)piperazin-1-yl)acetamido)pentyl)amino)-N-(6-(dimethylamino)pyridazin-3-yl)-6-isopropylnicotinamide], in that order: no less than 8.00, greater than 7.30, no less than 7.30, greater than 80% and greater than 80%.

Values taken from patent US20260297081A1, “COMPOUNDS AND METHODS OF TREATING CANCERS” (Cullgen Inc., priority 2023, published 2026).
